Experimental findings from patent EP0036269A1, “Substituted benzamides” (BEECHAM GROUP PLC, priority 1980, dated 1981) are described below.

Type in all cases: in vivo
The subject of test [1] is intra-gastric pressure in the rat. The experiment in a line: Increase in intragastric pressure in the rat. The settings on record: conscious restrained starved rats, 40 minute period after administration; for minimal effective dose: Rattus norvegicus, po, 40 min, read-out: minimum dose for activity. The procedure:
The compounds of the Examples were tested for pharmacological activity in increasing intra-gastric pressure in the rat. Intragastric pressure changes were recorded from previously starved conscious and restrained rats using a fluid filled catheter inserted into the lumen of the stomach via a permanent gastric fistula. The catheter was connected to a physiological pressure transducer and pressure changes recorded on a hot wire pen recorder. In each animal a pre-dose period of 40 minutes was allowed to obtain a measure of spontaneous activity. An index of activity was obtained by measuring the average height of pressure waves during 10 minute periods. Values for 4 such periods were obtained during assessment of spontaneous activity and for the 40 minute period after the administration of the Compounds. Student "t" test was applied to the difference in average values obtained for spontaneous and post compound activity.

Test [2] concerns apomorphine induced stereotypy. The experiment in a line: Inhibition of apomorphine-induced climbing in the mouse. The conditions noted are these: for ED50: sc, inhibition of climbing induced by apomorphine 1 mg/kg sc. The procedure: (§1) Compounds were also tested for their ability to inhibit apomorphine induced stereotypy in rodents. Inactivity in these tests may be indicative of a low propensity to produce extra pyramidal side effects in man. The tests used were as follows.
This test is based on that described by Protain, P. et al (1976) Psychopharmacol. 50, 1-6.
Apomorphine 1 mg/kg sc induced mice to climb the wall of a wire cage (inverted food hopper - 11 x 7.5 x 18 cm high). Mice acclimatised in their home cages in groups of 5 are placed under the hoppers immediately after the injection of apomorphine 1 mg/kg SC. At 10, 20 and 30 minutes after injection climbing behaviour scored. The mice are observed for 30 seconds and scored according to the position in which they spend the majority of time; score O - four paws on floor of cage; score 1 - 2 paws only on walls; score 2 - all four paws on wall of cage.
The scores at all 3 times for each mouse are summed for apomorphine only and for apomorphine plus compound groups of mice

Test [3] has as its system apomorphine induced stereotypy. The experiment in a line: Inhibition of apomorphine-induced biting in the rat. The settings on record: apomorphine 5 mg/kg sc, compounds administered subcutaneously 15 minutes after apomorphine, stereotypy scored for 90 mins. The procedure:
as §1
Apomorphine 5 mg/kg sc induces a stereotypic gnawing behaviour in rats which can be measured by a subjective scoring system; score O - animal behaving normally; score 1 - increased locomotion activity with occassional sniffing and licking; score 2 - persistent licking of the bars of the cage with occassional biting; score 3 - more sustained biting; score 4 - intense biting at a particular part of the cage, animal no longer moving about.
Animals are individually placed in wire cages and after being allowed to become acclimatised are injected with apomorphine 5 mg/kg sc. Stereotypy is scored at 10 min intervals for 90 mins after apomorphine. Compounds are administered subcutaneously 15 minutes after the apomorphine.

Read-outs that look alike come from different tables or passages of the source.

In the case of `COc1cc(N)c(Cl)cc1C(=O)NCC1CCC2CCCCN21` (single isomer, unassigned) [14 (Isomer B), (±) 4-Amino-5-chloro-2-methoxy-N-(3'-indolizidiny-methyl)-benzamide], in test [1] (Subcut), the minimal effective dose turned out to be 0.2 mg/kg. In test [2], the ED50 is given as 15 mg/kg. The “Inhibition of apomorphine-induced biting” value in test [3] is “inactive”.
Consider `COc1cc(N)c(Cl)cc1C(=O)NCC1CCCN2CCCCC12` (single isomer, unassigned) [4 (Isomer B), (±) 4-Amino-5-chloro-2-methoxy-N-(1'-guinolizidinyl-methyl)-benzamide], for which the “Inhibition of apomorphine-induced biting” value in test [3] is “inactive”.
On to `COc1cc(N)c(Cl)cc1C(=O)NCC1CCC2CCCCN2C1` (single isomer, unassigned) [Example 2 (Isomer A), (±) 4-Amino-5-chloro-2-methoxy-N-(3'-quinolizidinyl-methyl)-benzamide], for which the minimal effective dose in test [1] (oral) is 5 mg/kg. Moreover, the “minimum dose for activity” value in test [1] (Subcut) was found to be 0.2 mg/kg. In test [2] (apomorphine 1 mg/kg sc, climbing scored at 10, 20 and 30 minutes), the Inhibition of climbing result was “inactive”. In test [3], the “Inhibition of apomorphine-induced biting” value is “inactive”.
On to `COc1cc(N)c(Cl)cc1C(=O)NCC1CCC2CCCCN2C1` (single isomer, unassigned) [2 (Isomer B), (±) 4-Amino-5-chloro-2-methoxy-N-(3'-quinolizidinyl-methyl)-benzamide], for which the “minimum dose for activity” value in test [1] (Subcut) and in test [1] (oral) was 5.0 mg/kg throughout. In test [3], the “Inhibition of apomorphine-induced biting” value is “inactive”.
For `COc1cc(N)c(Cl)cc1C(=O)NCC1CCCC2CCCCN2C1` (racemic) [Example 8, (±) 4-Amino-5-chloro-2-methoxy-N-[3'-(1'-azabicyclo[5,4, O]-hendecyl-methyl)]-benzamide], the “Inhibition of apomorphine-induced biting” value in test [3] was “inactive”.
With `COc1cc(N)c(Cl)cc1C(=O)NCC1CC2CCCCN2C1` (racemic) [Example 12, (±) 4-Amino-5-chloro-2-methoxy-N-(2'-indolizidinyl-methyl)-benzamide], the “Inhibition of apomorphine-induced biting” value in test [3] is “inactive”.
As for `COc1cc(N)c(Cl)cc1C(=O)NCC1CCC2CCCCN21` (single isomer, unassigned) [Example 14 (Isomer A), (±) 4-Amino-5-chloro-2-methoxy-N-(3'-indolizidiny-methyl)-benzamide], the ED50 in test [2] (Mus musculus, read-out: ED50) stood at 20 mg/kg. Besides, in test [3], the “Inhibition of apomorphine-induced biting” value was “inactive”.
For `COc1cc(N)c(Cl)cc1C(=O)NCC1CCCN2CCCCC12` (single isomer, unassigned) [Example 4 (Isomer A), (±) 4-Amino-5-chloro-2-methoxy-N-(1'-guinolizidinyl-methyl)-benzamide], the “Inhibition of apomorphine-induced biting” value in test [3] is “inactive”.

In general, ED50 refers to the midpoint of the dose-response relation.
